The text below walks through data of publication PMC5820046 (Internal Medicine, 2017).

One data set concerns T cells. The settings on record: present case.
Data set [1] has as its system patient. The settings on record: present case, rapid type.
For data set [2], the system named is plasma protein. The settings on record: healthy volunteers, escalating dose levels; cited from earlier work.
The conditions of data set [3]: present case, DAP 7 mg/kg every 48 hours, chronic renal failure, HPLC.
Data set [4] concerns plasma protein. Kind of data set: Plasma protein binding of DAP, present case. The settings on record: patient plasma, DAP 7 mg/kg every 48 hours. It counts as in vitro ADME, human.
The test system of data set [5] is patient. The note with it: present case.
Data set [6] concerns patient. The note with it: present case (case 37).
For data set [7] the following is noted: healthy volunteers; DAP 6 mg/kg every 24 hours; cited from earlier work.
Data set [8] relates to patients. The settings on record: FDA adverse event reporting system, 2004 to 2010; cited from earlier work.
The subject of data set [9] is patients. The settings on record: phase III clinical trials; cited from earlier work.
The subject of data set [10] is patients. The settings on record: cited from earlier work.

Molecules are shown by their SMILES. Read-outs that look alike come from different tables or passages of the source.

Consider `CCCCCCCCCC(=O)N[C@@H](Cc1c[nH]c2ccccc12)C(=O)N[C@H](CC(N)=O)C(=O)N[C@@H](CC(=O)O)C(=O)N[C@@H]1C(=O)NCC(=O)N[C@@H](CCCN)C(=O)N[C@@H](CC(=O)O)C(=O)N[C@H](C)C(=O)N[C@@H](CC(=O)O)C(=O)NCC(=O)N[C@H](CO)C(=O)N[C@@H]([C@H](C)CC(=O)O)C(=O)N[C@@H](CC(=O)c2ccccc2N)C(=O)O[C@@H]1C` [DAP, Daptomycin], for which, in the data set with T cells, the “drug lymphocyte stimulation test (DLST) reaction” value is recorded as “negative”. Moreover, the intracutaneous test reaction entry in the data set on patient [1] is “positive”; in the data set on patient [1] (listed as daptomycin), “positivity”. Besides, the “percentage of DAP plasma protein binding” value in the data set with plasma protein [2] is recorded as “consistent across dose levels”. The “median plasma DAP Cmin” value was 27400 ng/mL in [3] and 9130 ng/mL in data set [7]. For the same molecule, the “percentage of plasma protein-bound DAP” value with plasma protein [4] amounted to 87.8%. Also, the “Skin tests, prick-puncture administration and patch tests, reaction” value in the data set with patient [5] is “negative”. Besides, the Imaging findings entry in the data set with patient [6] (DAP 7 mg/kg) was “Bilateral, peripheral nodules and patchy consolidations”. The Prognosis entry in the data set with patient [6] (initial treatment withdrawal) is reported as “Recover”. For the same molecule, the “patients who developed DAP-associated EP” value in the data set on patients [8] is 63 patients. Besides, the “myopathic symptoms, patients” value with patients [9] is 0.2%. Moreover, the “serum creatinine kinase (CK) elevation, patients” value in the data set on patients [9] is recorded as 2.8%. Also, in the data set on patients [10], the “DAP Cmin associated with an increased probability of CK elevation” value was 24300 ng/mL.
